Data published in patent US20250154173A1 (Merck Sharp & Dohme LLC, priority 2023, published 2025).

Each compound was assayed against T1, GST-RIPK1 (recombinant GST-RIPK1 kinase domain (residues 1-327)) (Homo sapiens, UniProt Q13546) (assay: RIPK1-ADP-Glo Enzymatic Assay). Settings: ten-point titration, top compound concentration of 100000 nM; 25 nM GST-RIPK1, 300 μM ATP, 3 μM dephosphorylated-MBP; 30 min pre-incubation, 150 min reaction.
T1 construct: recombinant GST-RIPK1 kinase domain (residues 1-327) enzyme produced from baculovirus-transfected Sf21 cells; host or cells: baculovirus-transfected Sf21 insect cells
T1 sequence (Q13546 1-327): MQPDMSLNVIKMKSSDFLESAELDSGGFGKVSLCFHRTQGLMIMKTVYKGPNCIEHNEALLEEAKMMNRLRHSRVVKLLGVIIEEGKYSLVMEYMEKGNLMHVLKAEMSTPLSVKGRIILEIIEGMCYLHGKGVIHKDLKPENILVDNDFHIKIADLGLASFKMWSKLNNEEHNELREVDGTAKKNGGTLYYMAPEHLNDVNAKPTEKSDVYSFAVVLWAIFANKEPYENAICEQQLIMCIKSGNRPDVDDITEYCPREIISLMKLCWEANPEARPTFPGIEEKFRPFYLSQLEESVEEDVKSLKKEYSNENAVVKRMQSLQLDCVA
Assay type: biochemical
Experimental: RIPK1-ADP-Glo Enzymatic Assay
The enzymatic activity of RIPK1 is measured using an assay derived from ADP-Glo kit (TMPromega), which provides a luminescent-based ADP detection system. Specifically, the ADP generated by RIPK1 kinase is proportionally detected as luminescent signals in a homogenous fashion. In this context, the assessment of the inhibitory effect of small molecules (EC50) is measured by the effectiveness of the compounds to inhibit the ATP to ADP conversion by RIPK1.
In this assay, the potency (EC50) of each compound was determined from a ten-point (1:3 serial dilution; top compound concentration of 100000 nM) titration curve using the following outlined procedure. To each well of a white ProxiPlus 384 well-plate, 30 nL of compound (1% DMSO in final assay volume of 3 μL) was dispensed, followed by the addition of 2 μL of 1× assay buffer (25 mM Hepes 7.3, 20 mM MgCl2, 50 mM NaCl, 1 mM DTT, 0.005% Tween20, and 0.02% BSA) containing 37.5 nM of GST-RIPK1 (recombinant GST-RIPK1 kinase domain (residues 1-327) enzyme produced from baculovirus-transfected Sf21 cells: MW=62 kDa). Plates were placed in an ambient temperature humidified chamber for a 30 minutes pre-incubation with compound. Subsequently, each reaction was initiated by the addition of 1 μL 1× assay buffer containing 900 μM ATP and 3 μM dephosphorylated-MBP substrate. The final reaction in each well of 3 μL consists of 25 nM of GST-RIPK1, 300 μM ATP, and 3 μM dephosphorylated-MBP. Kinase reactions were allowed to proceed for 150 minutes prior to adding ADP-Glo reagents per Promega's outlined kit protocol. Dose-response curves were generated by plotting percent effect (% product conversion; Y-axis) vs. Log 10 compound concentrations (X-axis). EC50 values were calculated using a non-linear regression, four-parameters sigmoidal dose-response model.

EC50 [nM] | Compound
54 | 4-{[(1r,3R,5′S,7a′R)-3′-oxo-5′- phenyltetrahydro-3′H- spiro[cyclobutane-1,2′-pyrrolo[2,1- b][1,3]oxazol]-3-yl]oxy}pyrimidine- 2-carbonitrile [Example 9.18]
19 | O=C1N2[C@@H](CC[C@H]2c2ccccc2)OC12CCC(Oc1cnccn1)CC2 (mixture of isomers) [Example 9.52, (5′S,7a′R)-5′-phenyl-4-[(pyrazin-2-yl)oxy]tetrahydro-3′H-spiro[cyclohexane-1,2′-pyrrolo[2,1-b][1,3]oxazol]-3′-one]
105 | O=C1N2[C@@H](CC[C@H]2c2cc(F)cc(F)c2)OC12CC(Oc1ccnc3c(F)cnn13)C2 (single isomer, unassigned) [Example 9.4]
328 | O=C1N2[C@@H](CC[C@H]2c2cc(F)cc(F)c2)OC12CC(Oc1ccnc3c(F)cnn13)C2 (single isomer, unassigned) [Example 9.5]
475 | Cc1cn(-c2cc(OC3CC4(C3)O[C@@H]3CC[C@@H](c5cc(F)cc(F)c5)N3C4=O)ncn2)cn1 (single isomer, unassigned) [Example 9.9]
64 | O=C1N2[C@@H](CC[C@H]2c2cc(F)cc(F)c2)OC12CC(Oc1ccc(F)cn1)C2 (single isomer, unassigned) [Example 9.35]
474 | N#Cc1cc(OC2CC3(C2)O[C@@H]2CC[C@@H](c4cccc(F)c4F)N2C3=O)ncn1 (single isomer, unassigned) [Example 9.40, 6-{[(5′S,7a′R)-5′-(2,3-difluorophenyl)-3′-oxotetrahydro-3′H-spiro[cyclobutane-1,2′-pyrrolo[2,1-b][1,3]oxazol]-3-yl]oxy}pyrimidine-4-carbonitrile]
14 | N#Cc1cc(OC2CC3(C2)O[C@@H]2CC[C@@H](c4cccc(F)c4F)N2C3=O)ncn1 (single isomer, unassigned) [Example 9.41, 6-{[(5′S,7a′R)-5′-(2,3-difluorophenyl)-3′-oxotetrahydro-3′H-spiro[cyclobutane-1,2′-pyrrolo[2,1-b][1,3]oxazol]-3-yl]oxy}pyrimidine-4-carbonitrile]
390 | CC(O[C@H]1C[C@@]2(C1)O[C@@H]1CC[C@@H](c3cc(F)cc(F)c3)N1C2=O)c1ccc(F)cn1 (single isomer, unassigned) [Example 12.1, (1R,3R,5′S,7a′R)-5′-(3,5-difluorophenyl)-3-((R or S)-1-(5-fluoropyridin-2-yl)ethoxy)tetrahydro-3′H-spiro[cyclobutane-1,2′-pyrrolo[2,1-b]oxazol]-3′-one]
155 | C[C@@H](OC1CC2(C1)O[C@@H]1CC[C@@H](c3cc(F)cc(F)c3)N1C2=O)c1ccc(F)cn1 (single isomer, unassigned) [Example 12.2, (1R,3R,5′S,7a′R)-5′-(3,5-difluorophenyl)-3-((S or R)-1-(5-fluoropyridin-2-yl)ethoxy)tetrahydro-3′H-spiro[cyclobutene-1,2′-pyrrolo[2,1-b]oxazol]-3′-one]
239 | CC(OC1CC2(C1)O[C@@H]1CC[C@@H](c3cc(F)cc(F)c3)N1C2=O)c1ncccc1F (single isomer, unassigned) [Example 12.3, (1R or S,3R or S,5′S,7a′R)-5′-(3,5-difluorophenyl)-3-((R or S)-1-(3-fluoropyridin-2-yl)ethoxy)tetrahydro-3′H-spiro[cyclobutane-1,2′-pyrrolo[2,1-b]oxazol]-3′-one]
329 | CC(OC1CC2(C1)O[C@@H]1CC[C@@H](c3cc(F)cc(F)c3)N1C2=O)c1ncccc1F (single isomer, unassigned) [Example 12.4, (1S or R,3S or R,5′S,7a′R)-5′-(3,5-difluorophenyl)-3-((S or R)-1-(3-fluoropyridin-2-yl)ethoxy)tetrahydro-3′H-spiro[cyclobutane-1,2′-pyrrolo[2,1-b]oxazol]-3′-one]

The remaining lines, values behind:

Compound | EC50 [nM]
5-{[(1r,3R,5′S,7a′R)-3′-oxo-5′- phenyltetrahydro-3′H- spiro[cyclobutane-1,2′-pyrrolo[2,1- b][1,3]oxazol]-3-yl]oxy}pyridine-3- carbonitrile [Example 9.15] | 73
O=C1N2[C@@H](CC[C@H]2c2ccccc2)OC12CCC(OCc1ccccc1)CC2 (single isomer, unassigned) [Example 1.1, ((1r or s),4R,5′S,7a′R)-4-(benzyloxy)-5′-phenyltetrahydro-3′H-spiro[cyclohexane-1,2′-pyrrolo[2,1-b]oxazol]-3′-one] | 256
O=C1N2[C@@H](CC[C@H]2c2ccccc2)OC12CCC(OCc1ccccc1)CC2 (single isomer, unassigned) [Example 1.2, ((1s or r),4R,5′S,7a′R)-4-(benzyloxy)-5′-phenyltetrahydro-3′H-spiro[cyclohexane-1,2′-pyrrolo[2,1-b]oxazol]-3′-one] | 138
O=C1N2[C@@H](CC[C@H]2c2cncc(F)c2)OC12CCC(OCc1ccccc1)CC2 (single isomer, unassigned) [Example 2.1, ((1r or s),4R,5′S,7a′R)-4-(benzyloxy)-5′-(5-fluoropyridin-3-yl)tetrahydro-3′H-spiro[cyclohexane-1,2′-pyrrolo[2,1-b]oxazol]-3′-one] | 1130
O=C1N2[C@@H](CC[C@H]2c2cncc(F)c2)OC12CCC(OCc1ccccc1)CC2 (single isomer, unassigned) [Example 2.2, ((1s or r),4R,5′S,7a′R)-4-(benzyloxy)-5′-(5-fluoropyridin-3-yl)tetrahydro-3′H-spiro[cyclohexane-1,2′-pyrrolo[2,1-b]oxazol]-3′-one] | 595
Cn1cc(C2CCC3OC4(CC(Oc5cc(C#N)ncn5)C4)C(=O)N32)cn1 (single isomer, unassigned) [Example 6.1, 6-((((1r or s),3R,5′(S or R),7a′R)-5′-(1-methyl-1H-pyrazol-4-yl)-3′-oxotetrahydro-3′H-spiro[cyclobutane-1,2′-pyrrolo[2,1-b]oxazol]-3-yl)oxy)pyrimidine-4-carbonitrile] | 93400
Cn1cc(C2CCC3OC4(CC(Oc5cc(C#N)ncn5)C4)C(=O)N32)cn1 (single isomer, unassigned) [Example 6.2, 6-((((1s or r),3R,5′(S or R),7a′R)-5′-(1-methyl-1H-pyrazol-4-yl)-3′-oxotetrahydro-3′H-spiro[cyclobutane-1,2′-pyrrolo[2,1-b]oxazol]-3-yl)oxy)pyrimidine-4-carbonitrile] | 99000
Cn1cc(C2CC[C@H]3OC4(CC(Oc5cc(C#N)ncn5)C4)C(=O)N23)cn1 (single isomer, unassigned) [Example 6.3, 6-((((1r or s),3R,5′(R or S),7a′R)-5′-(1-methyl-1H-pyrazol-4-yl)-3′-oxotetrahydro-3′H-spiro[cyclobutane-1,2′-pyrrolo[2,1-b]oxazol]-3-yl)oxy)pyrimidine-4-carbonitrile] | 129
Cn1cc(C2CCC3OC4(CC(Oc5cc(C#N)ncn5)C4)C(=O)N32)cn1 (single isomer, unassigned) [Example 6.4, 6-((((1s or r),3R,5′(R or S),7a′R)-5′-(1-methyl-1H-pyrazol-4-yl)-3′-oxotetrahydro-3′H-spiro[cyclobutane-1,2′-pyrrolo[2,1-b]oxazol]-3-yl)oxy)pyrimidine-4-carbonitrile] | 2830
